Data published in patent US11999727B2 (Tango Therapeutics, Inc., priority 2020, dated 2024).

Assays:
PRMT5 [1] = molecular target: T1, PRMT5 (Homo sapiens, UniProt O14744); assay: PRMT5 biochemical IC50 assay with no cofactor; settings: PRMT5, no cofactor
T1 construct: purchased Viva (custom protein)
Source text: Table 1 indicates IC50 values (μM) against PRMT5 for exemplary compounds in the presence of SAM as cofactor, with no cofactor, and with MTA as cofactor, respectively (columns 4-6). […] Ki values can be calculated from the IC50 values as described in the Examples section. As detailed in the Examples section, for the assay performed in the presence of SAM, IC50=Ki×1.5 (Ki=IC50/1.5).

PRMT5 [2] = molecular target: T1, PRMT5; assay: PRMT5 biochemical IC50 assay with MTA as cofactor; settings: PRMT5, MTA as cofactor; read-out: MTA IC50
PRMT5 [3] = molecular target: T1, PRMT5; assay: PRMT5 biochemical IC50 assay with SAM as cofactor; settings: PRMT5, SAM as cofactor; read-out: SAM IC50
[4] = system: HAP1 MTAP-deleted cell line; assay: SDMA in-cell western assay, HAP1 MTAP-deleted; type: cell-based; settings: for IC50: Homo sapiens, HAP1, SDMA in-cell western, HAP1 MTAP-deleted; for MTAP intact/deleted ratio: SDMA in-cell western
Summary of the method: (§1)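 Isogenic HAP1 pair: the MTAP-intact line expresses endogenous MTAP, and the deleted line is MTAP-null. Symmetric dimethylarginine was detected by in-cell western and IC50 values derived for each line.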

[5] = system: HAP1 MTAP-intact cell line; assay: SDMA in-cell western assay, HAP1 MTAP-intact; type: cell-based; settings: Homo sapiens, HAP1, SDMA in-cell western, HAP1 MTAP-intact; read-out: MTAP HAP1 intact IC50
Summary of the method: as §1

[6] = system: HAP1 MTAP-deleted cell line; assay: Viability assay, MTAP-deleted cell line; type: cell-based; settings: Homo sapiens, read-out: HAP1 MTAP deleted viability
Source text: Table 1 additionally indicates IC50 values in a viability assay for the MTAP-deleted cell line (column 10), indicating the effect of treatment with compound on cell survival.

[7] = read-out: No Cofactor/ rel IC50
[8] = read-out: HAP 1 MTAP deleted IC50
[9] = IC50 ratio HAP1 MTAP-intact / HAP1 MTAP-deleted
[10] = HAP1, viability, HAP1 MTAP-deleted cell line
[11] = read-out: HAP1 MTAP deleted IC50
[12] = HAP1, viability assay, MTAP-deleted cell line
[13] = HAP1, viability assay, HAP1 MTAP-deleted

T1 sequence (O14744 whole entry): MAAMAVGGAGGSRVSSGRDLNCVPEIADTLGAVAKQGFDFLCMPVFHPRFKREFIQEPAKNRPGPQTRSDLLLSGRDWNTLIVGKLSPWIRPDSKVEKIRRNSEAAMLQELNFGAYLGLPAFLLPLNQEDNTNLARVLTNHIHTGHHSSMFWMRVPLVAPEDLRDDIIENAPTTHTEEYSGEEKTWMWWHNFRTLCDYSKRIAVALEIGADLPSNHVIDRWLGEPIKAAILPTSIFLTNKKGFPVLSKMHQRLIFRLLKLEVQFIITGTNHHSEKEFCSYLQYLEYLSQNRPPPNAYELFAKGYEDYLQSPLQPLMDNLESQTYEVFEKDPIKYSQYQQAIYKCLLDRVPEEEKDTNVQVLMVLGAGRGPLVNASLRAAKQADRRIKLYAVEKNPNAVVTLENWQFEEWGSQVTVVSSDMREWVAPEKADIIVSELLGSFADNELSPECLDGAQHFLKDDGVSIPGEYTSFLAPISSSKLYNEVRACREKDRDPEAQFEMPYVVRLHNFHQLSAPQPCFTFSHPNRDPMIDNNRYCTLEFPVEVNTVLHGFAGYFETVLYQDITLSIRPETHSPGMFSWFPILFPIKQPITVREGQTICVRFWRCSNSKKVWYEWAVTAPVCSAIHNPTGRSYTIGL
T1 sequence (Q9BQA1 whole entry partner): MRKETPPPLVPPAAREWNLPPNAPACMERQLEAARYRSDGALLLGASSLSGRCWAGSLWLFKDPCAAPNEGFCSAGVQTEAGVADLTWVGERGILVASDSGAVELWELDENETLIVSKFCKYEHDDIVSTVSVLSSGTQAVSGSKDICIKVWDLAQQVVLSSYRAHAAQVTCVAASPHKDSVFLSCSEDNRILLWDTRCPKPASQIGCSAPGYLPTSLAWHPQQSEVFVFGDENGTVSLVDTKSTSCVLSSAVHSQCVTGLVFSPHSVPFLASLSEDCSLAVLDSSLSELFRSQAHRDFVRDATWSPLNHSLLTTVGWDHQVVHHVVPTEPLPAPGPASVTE

| SMILES | IC50 (PRMT5 [1]; [7]) [nM] | IC50 (PRMT5 [2]) [nM] | IC50 (PRMT5 [3]) [nM] | IC50 [4, 8] [nM] | IC50 [5] [nM] | IC50 (PRMT5 [1]; read-out: No Cofactor/rel IC50) [nM] | IC50 [4, 11] [nM] | MTAP intact/deleted ratio [4, 9] | IC50 [6, 10] [nM] | IC50 ([6]; HAP1, viability IC50, MTAP-deleted cell line) [nM] | IC50 [6, 12] [nM] | IC50 [6, 13] [nM] | MTAP intact/deleted ratio ([4]; IC50 ratio HAP1 MTAP-intact vs HAP1 MTAP-deleted) |
| --- | --- | --- | --- | --- | --- | --- | --- | --- | --- | --- | --- | --- | --- |
| COc1ncc(NC(=O)C(=O)N2C[C@H](C)[C@H](OC)C[C@H]2c2ccc3scnc3c2)cc1C(N)=O (single isomer, unassigned) [Compound 1364] | < 50 | < 50 | 50 to 500 | < 100 | 100 to 1000 | – | – | A (an IC50 ratio greater than or equal to 10 fold) | < 1000 | – | – | – | – |
| Cc1cc(NC(=O)C(=O)N2C[C@@H](C)CC[C@@H]2c2ccc(CCN(C)C)cc2)cnc1N (single isomer, unassigned) [Compound 1322] | > 500 | > 500 | > 500 | > 1000 | > 1000 | – | – | – | > 10000 | – | – | – | – |
| CCc1cc(NC(=O)C(=O)N2C[C@@H](C)CC[C@@H]2c2ccc(N3CCN(C)CC3)c(C)c2)cnc1N [Compound 1390, N-(6-Amino-5-ethyl-3-pyridyl)-2-[(2R,5S)-5-methyl-2-[3-methyl-4-(4-methylpiperazin-1-yl)phenyl]-1-piperidyl]-2-oxo-acetamide] | 50 to 500 | < 50 | 50 to 500 | < 100 | 100 to 1000 | – | – | A (an IC50 ratio greater than or equal to 10 fold) | < 1000 | – | – | – | – |
| Cc1cc(NC(=O)C(=O)N2C[C@H](C)CC[C@H]2[C@H]2CC3(C[C@H](C(N)=O)C3)C2)cnc1N (mixture of isomers) [Compound 812, 6-(1-(2-((6-amino-5-methylpyridin-3-yl)amino)-2-oxoacetyl)-5-methylpiperidin-2-yl)spiro[3.3]heptane-2-carboxamide] | – | 50 to 500 | > 500 | – | > 1000 | > 500 | > 1000 | C (an IC50 ratio of less than 3 fold) | – | – | – | > 10000 | – |
| COc1ncc(NC(=O)C(=O)N2C[C@H](C)CC[C@H]2c2cc3cn[nH]c3s2)cc1C(N)=O (single isomer, unassigned) [Compound 950, 2-methoxy-5-(2-(5-methyl-2-(1H-thieno[2,3-c]pyrazol-5-yl)piperidin-1-yl)-2-oxoacetamido)nicotinamide] | – | > 500 | > 500 | > 1000 | > 1000 | > 500 | – | B (an IC50 ratio greater than or equal to 3 fold but lower than 10 fold) | – | – | > 10000 | – | – |
| CCc1cc(NC(=O)C(=O)N2C[C@@H](C)CC[C@@H]2c2ccc3sc([C@H]4CN(C)C(=O)CN4C)nc3c2)cnc1N [Compound 1385] | < 50 | < 50 | 50 to 500 | < 100 | < 100 | – | – | A (an IC50 ratio greater than or equal to 10 fold) | < 1000 | – | – | – | – |
| Cc1cc(NC(=O)C(=O)N2C[C@H](C)CC[C@H]2C2CCCC(C)(C)C2)cnc1N (mixture of isomers) [Compound 150, N-(6-amino-5-methyl-3-pyridyl)-2-[(2S,5R)-2-(3,3-dimethylcyclohexyl)-5-methyl-1-piperidyl]-2-oxo-acetamide] | 50 to 500 | 50 to 500 | 50 to 500 | 100 to 1000 | > 1000 | – | – | C (an IC50 ratio of less than 3 fold) | – | – | 1000 to 10000 | – | – |
| COc1cc([C@@H]2CC[C@@H](C)CN2C(=O)C(=O)Nc2cncc(C(N)=O)c2)cnc1C(F)(F)F (racemic) [Compound 223, rac-5-{2-[(2R,5S)-2-[5-Methoxy-6-(trifluoromethyl)pyridin-3-yl]-5-methylpiperidin-1-yl]-2-oxoacetamido}pyridine-3-carboxamide] | – | 50 to 500 | > 500 | – | > 1000 | > 500 | > 1000 | C (an IC50 ratio of less than 3 fold) | – | – | > 10000 | – | – |
| Cc1cncc(NC(=O)C(=O)N2C[C@H](C)CC[C@H]2c2cccc(Cl)c2)c1 (single isomer, unassigned) [Compound 90] | > 500 | > 500 | > 500 | > 1000 | > 1000 | – | – | C (an IC50 ratio of less than 3 fold) | – | – | > 10000 | – | – |
| COc1ncc(NC(=O)C(=O)N2C[C@H](C)CC[C@H]2c2ccc(F)cc2)cc1C(N)=O (single isomer, unassigned) [Compound 446] | – | < 50 | 50 to 500 | – | > 1000 | 50 to 500 | < 100 | A (an IC50 ratio greater than or equal to 10 fold) | – | – | 1000 to 10000 | – | – |
| Cc1cc(NC(=O)C(=O)N2CCCC[C@@H]2c2cccs2)cnc1N (single isomer, unassigned) [Compound 24] | 50 to 500 | < 50 | 50 to 500 | < 100 | > 1000 | – | – | A (an IC50 ratio greater than or equal to 10 fold) | – | – | > 10000 | – | – |
| Cc1cc(NC(=O)C(=O)N2C[C@@H](C)C(F)(F)C[C@@H]2c2ccc(F)c(F)c2)cnc1N (single isomer, unassigned) [Compound 705] | – | < 50 | 50 to 500 | – | 100 to 1000 | < 50 | < 100 | B (an IC50 ratio greater than or equal to 3 fold but lower than 10 fold) | – | – | – | < 1000 | – |

The next lines start with results.

| IC50 (PRMT5 [1]; [7]) [nM] | IC50 (PRMT5 [2]) [nM] | IC50 (PRMT5 [3]) [nM] | IC50 [4, 8] [nM] | IC50 [5] [nM] | IC50 (PRMT5 [1]; read-out: No Cofactor/rel IC50) [nM] | IC50 [4, 11] [nM] | SMILES | MTAP intact/deleted ratio [4, 9] | IC50 [6, 10] [nM] | IC50 ([6]; HAP1, viability IC50, MTAP-deleted cell line) [nM] | IC50 [6, 12] [nM] | IC50 [6, 13] [nM] | MTAP intact/deleted ratio ([4]; IC50 ratio HAP1 MTAP-intact vs HAP1 MTAP-deleted) |
| --- | --- | --- | --- | --- | --- | --- | --- | --- | --- | --- | --- | --- | --- |
| – | < 50 | 50 to 500 | 100 to 1000 | > 1000 | 50 to 500 | – | Cc1cc(NC(=O)C(=O)N2C[C@@H](C)CC[C@@H]2c2cc(Cl)cc(C(F)(F)F)c2)cnc1N (single isomer, unassigned) [Compound 665] | A (an IC50 ratio greater than or equal to 10 fold) | – | 1000 to 10000 | – | – | – |
| – | < 50 | 50 to 500 | – | > 1000 | < 50 | < 100 | COc1ncc(NC(=O)C(=O)N2C[C@@H](C)CC[C@@H]2c2cccs2)cc1C(N)=O (single isomer, unassigned) [Compound 303] | A (an IC50 ratio greater than or equal to 10 fold) | – | – | < 1000 | – | – |
| – | < 50 | 50 to 500 | – | 100 to 1000 | < 50 | < 100 | Cc1cc(NC(=O)C(=O)N2C[C@@H](C)CC[C@@H]2c2cccc(Cl)c2)cnc1N (single isomer, unassigned) [Compound 284] | A (an IC50 ratio greater than or equal to 10 fold) | – | – | < 1000 | – | – |
| – | 50 to 500 | 50 to 500 | – | > 1000 | > 500 | > 1000 | C[C@H]1CC[C@H](C2CCC(F)(F)CC2)N(C(=O)C(=O)Nc2cncc(C(N)=O)c2)C1 (single isomer, unassigned) [Compound 320] | B (an IC50 ratio greater than or equal to 3 fold but lower than 10 fold) | – | – | > 10000 | – | – |
| – | 50 to 500 | > 500 | > 1000 | > 1000 | 50 to 500 | – | C[C@H]1CC[C@H](c2cc[nH]n2)N(C(=O)C(=O)Nc2cncc(C(N)=O)c2)C1 (single isomer, unassigned) [Compound 978] | C (an IC50 ratio of less than 3 fold) | – | – | > 10000 | – | – |
| – | > 500 | > 500 | – | > 1000 | > 500 | > 1000 | C[C@@H]1CC[C@@H](c2ccc(O)nc2)N(C(=O)C(=O)Nc2cncc(C(N)=O)c2)C1 (single isomer, unassigned) [Compound 351] | C (an IC50 ratio of less than 3 fold) | – | – | > 10000 | – | – |
| – | 50 to 500 | 50 to 500 | – | > 1000 | 50 to 500 | < 100 | C[C@@H]1CC[C@@H](c2ccc(Cl)c(F)c2)N(C(=O)C(=O)Nc2cncc(C(N)=O)c2)C1 (racemic) [Compound 327, rac-5-{2-[(2R,5S)-2-(4-Chloro-3-fluorophenyl)-5-methylpiperidin-1-yl]-2-oxoacetamido}pyridine-3-carboxamide] | A (an IC50 ratio greater than or equal to 10 fold) | – | – | 1000 to 10000 | – | – |
| – | < 50 | 50 to 500 | – | 100 to 1000 | < 50 | < 100 | CCc1cc(NC(=O)C(=O)N2CC(C)CCC2c2ccc(N3CCC4C(CCCN4C)C3)cc2)cnc1N (single isomer, unassigned) [Compound 1111] | – | – | – | < 1000 | – | A (an IC50 ratio greater than or equal to 10 fold) |
